Reference: patent publication US12661342B2, “Heteroaryl compounds and therapeutic uses thereof in conditions associated with the alteration of the activity of beta-glucocerebrosidase” (GT GAIN THERAPEUTICS SA, priority 2019, dated 2026)

Biological target: T1, β-glucocerebrosidase (Homo sapiens, UniProt P04062, L483P)
T1 construct: host or cells: human Gaucher disease patient fibroblasts GM08760A
T1 sequence (P04062 40-536 L483P): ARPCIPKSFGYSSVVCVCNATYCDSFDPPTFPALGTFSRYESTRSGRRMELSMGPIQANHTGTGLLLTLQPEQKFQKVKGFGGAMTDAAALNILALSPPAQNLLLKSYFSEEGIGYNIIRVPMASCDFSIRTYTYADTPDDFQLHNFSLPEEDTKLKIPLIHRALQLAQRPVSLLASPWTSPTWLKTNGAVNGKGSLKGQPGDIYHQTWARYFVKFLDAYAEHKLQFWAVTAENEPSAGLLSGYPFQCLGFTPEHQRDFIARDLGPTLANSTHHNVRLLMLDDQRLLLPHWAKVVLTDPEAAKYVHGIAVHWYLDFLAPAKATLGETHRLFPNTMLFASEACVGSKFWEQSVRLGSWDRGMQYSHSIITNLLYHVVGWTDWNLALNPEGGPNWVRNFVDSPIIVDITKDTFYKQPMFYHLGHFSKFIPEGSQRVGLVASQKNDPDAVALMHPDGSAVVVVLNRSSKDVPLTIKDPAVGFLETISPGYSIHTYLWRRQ
Test: Enhancement of β-glucocerebrosidase activity measured in Gaucher disease fibroblasts (4-MU-β-D-glucopyranoside substrate, intact cells)
Assay type: cell-based
Parameters: key: Increase in comparison with non-treated of >2.0 fold is shown as A; Increase in comparison with non-treated of >1.7-2.0 fold is shown as B; Increase in comparison with non-treated of 1.2-1.7 fold is shown as C; D means that no increase compared with non-treated cells was detected in this method
Details: GBA fibroblasts bearing L444P (GM08760A, homozygous p.L444P); compound at concentrations between 6 and 50 μM; 4 days incubation
How it was run: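 Patient fibroblasts homozygous for p.L444P (GM08760A), grown in DMEM/10% FBS and exposed to compound for 4 days. Intact cells then given 4-MU-β-D-glucopyranoside in 0.1 M acetate pH 4, 1 h, 37 °C; stopped at pH 10.7, 4-MU fluorescence ex 340/em 460. Value is fold increase over untreated cells; binned at 6–50 μM.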

SMILES | Range: increase in enzyme activity in comparison with non-treated cells (Enzyme activity assay for compounds of Examples 33-141)
Nc1cc(Nc2ccccc2F)cc(C(=O)Nc2ccccc2)n1 [Example 74, 6-Amino-4-((2-fluorophenyl)amino)-N-phenylpicolinamide] | C (Increase in comparison with non-treated of 1.2-1.7 fold is shown as C)
Nc1cc(Nc2ccccc2F)nc(C(=O)Nc2ccccc2)c1 [Example 75, 4-Amino-6-((2-fluorophenyl)amino)-N-phenylpicolinamide] | C (Increase in comparison with non-treated of 1.2-1.7 fold is shown as C)
COc1ccccc1Nc1cc(N)nc(C(=O)NC2Cc3ccccc3C2)c1 [Example 76, 6-Amino-N-(2,3-dihydro-1H-inden-2-yl)-4-((2-methoxyphenyl)amino)picolinamide] | D
Cc1ccc(Nc2cc(N)nc(C(=O)Nc3ccccc3)c2)c(O)c1 [Example 77, 6-Amino-4-((2-hydroxy-4-methylphenyl)amino)-N-phenylpicolinamide] | C (Increase in comparison with non-treated of 1.2-1.7 fold is shown as C)
Nc1cc(Nc2ccc(F)cc2O)cc(C(=O)Nc2ccccc2)n1 [Example 78, 6-Amino-4-((4-fluoro-2-hydroxyphenyl)amino)-N-phenylpicolinamide] | B (Increase in comparison with non-treated of >1.7-2.0 fold is shown as B)
Nc1cc(Nc2ccccn2)cc(C(=O)Nc2ccccc2)n1 [Example 79, 6-Amino-N-phenyl-4-(pyridin-2-ylamino)pyridine-2-carboxamide] | C (Increase in comparison with non-treated of 1.2-1.7 fold is shown as C)
Nc1cc(Nc2cccnc2)cc(C(=O)Nc2ccccc2)n1 [Example 80, 6-Amino-N-phenyl-4-(pyridin-3-ylamino)picolinamide] | C (Increase in comparison with non-treated of 1.2-1.7 fold is shown as C)
Nc1nc(Nc2ccccc2O)cc(C(=O)NC2Cc3ccccc3C2)n1 [Example 81, 2-amino-N-(2,3-dihydro-1H-inden-2-yl)-6-((2-hydroxyphenyl)amino)pyrimidine-4-carboxamide] | B (Increase in comparison with non-treated of >1.7-2.0 fold is shown as B)
CN(C(=O)c1cc(Nc2ccccc2O)nc(N)n1)C1Cc2ccccc2C1 [Example 82, 2-Amino-N-(2,3-dihydro-1H-inden-2-yl)-6-((2-hydroxyphenyl)amino)-N-methylpyrimidine-4-carboxamide] | C (Increase in comparison with non-treated of 1.2-1.7 fold is shown as C)
CN(C(=O)c1cc(Nc2ccccc2O)nc(N)n1)C1CCc2ccccc2C1 (centres unmarked) [Example 83, 2-amino-6-((2-hydroxyphenyl)amino)-N-methyl-N-(1,2,3,4-tetrahydronaphthalen-2-yl)-pyrimidine-4-carboxamide] | D
Nc1nc(Nc2ccccc2O)cc(C(=O)NC2CCc3ccccc3C2)n1 (centres unmarked) [Example 84, 2-Amino-6-((2-hydroxyphenyl)amino)-N-(1,2,3,4-tetrahydronaphthalen-2-yl)pyrimidine-4-carboxamide] | C (Increase in comparison with non-treated of 1.2-1.7 fold is shown as C)
Nc1nc(Nc2ccccc2O)cc(C(=O)N2CCc3ccccc3C2)n1 [Example 85, (2-Amino-6-((2-hydroxyphenyl)amino)pyrimidin-4-yl)(3,4-dihydroisoquinolin-2(1H)-yl)methanone] | C (Increase in comparison with non-treated of 1.2-1.7 fold is shown as C)
Nc1nc(Nc2ccccc2O)cc(C(=O)N2Cc3ccccc3C2)n1 [Example 86, (2-Amino-6-((2-hydroxyphenyl)amino)pyrimidin-4-yl)(isoindolin-2-yl)methanone] | C (Increase in comparison with non-treated of 1.2-1.7 fold is shown as C)
Cc1ccccc1Nc1cc(N)cc(C(=O)NC2Cc3ccccc3C2)n1 [Example 87, 4-Amino-N-(2,3-dihydro-1H-inden-2-yl)-6-(o-tolylamino)picolinamide] | B (Increase in comparison with non-treated of >1.7-2.0 fold is shown as B)
Nc1cc(Nc2ccccc2O)nc(C(=O)N2CCN(c3ccccc3)CC2)c1 [Example 88, (4-Amino-6-((2-hydroxyphenyl)amino)pyridin-2-yl)(4-phenylpiperazin-1-yl)methanone] | C (Increase in comparison with non-treated of 1.2-1.7 fold is shown as C)
Nc1cc(Nc2cccc3c2OCO3)nc(C(=O)NC2Cc3ccccc3C2)c1 [Example 89, 4-Amino-6-(benzo[d][1,3]dioxol-4-ylamino)-N-(2,3-dihydro-1H-inden-2-yl)picolinamide] | C (Increase in comparison with non-treated of 1.2-1.7 fold is shown as C)
Cc1cccc(Nc2cc(N)cc(C(=O)NC3Cc4ccccc4C3)n2)c1F [Example 90, 4-Amino-N-(2,3-dihydro-1H-inden-2-yl)-6-((2-fluoro-3-methylphenyl)amino)picolinamide] | C (Increase in comparison with non-treated of 1.2-1.7 fold is shown as C)
Cc1cccc(Nc2cc(N)cc(C(=O)NC3Cc4ccccc4C3)n2)c1O [Example 91, 4-Amino-N-(2,3-dihydro-1H-inden-2-yl)-6-((2-hydroxy-3-methylphenyl)amino)picolinamide] | B (Increase in comparison with non-treated of >1.7-2.0 fold is shown as B)
Nc1cc(Nc2cccc(F)c2)nc(C(=O)NC2Cc3ccccc3C2)c1 [Example 92, 4-Amino-N-(2,3-dihydro-1H-inden-2-yl)-6-((3-fluorophenyl)amino)picolinamide] | A (Increase in comparison with non-treated of >2.0 fold is shown as A)
COc1ccccc1Nc1cc(N)cc(C(=O)Nc2ccccc2)n1 [Example 93, 4-Amino-6-((2-methoxyphenyl)amino)-N-phenylpicolinamide] | B (Increase in comparison with non-treated of >1.7-2.0 fold is shown as B)
Nc1cc(Nc2cccc3c2OCO3)nc(C(=O)Nc2ccccc2)c1 [Example 94, 4-Amino-6-(benzo[d][1,3]dioxol-4-ylamino)-N-phenylpicolinamide] | B (Increase in comparison with non-treated of >1.7-2.0 fold is shown as B)
Nc1cc(Nc2cccc3c2OCO3)nc(C(=O)N2Cc3ccccc3C2)c1 [Example 95, (4-Amino-6-(benzo[d][1,3]dioxol-4-ylamino)pyridin-2-yl)(isoindolin-2-yl)methanone] | C (Increase in comparison with non-treated of 1.2-1.7 fold is shown as C)
COc1ccccc1Nc1cc(N)cc(C(=O)N2Cc3ccccc3C2)n1 [Example 96, (6-(2-Methoxyphenylamino)-4-aminopyridin-2-yl)(isoindolin-2-yl)methanone] | C (Increase in comparison with non-treated of 1.2-1.7 fold is shown as C)
Cc1cccc(Nc2cc(N)cc(C(=O)NC3Cc4ccccc4C3)n2)c1 [Example 97, 4-Amino-N-(2,3-dihydro-1H-inden-2-yl)-6-(m-tolylamino)picolinamide] | A (Increase in comparison with non-treated of >2.0 fold is shown as A)
Nc1cc(Nc2ccc(F)cc2)nc(C(=O)NC2Cc3ccccc3C2)c1 [Example 98, 4-Amino-N-(2,3-dihydro-1H-inden-2-yl)-6-((4-fluorophenyl)amino)picolinamide] | B (Increase in comparison with non-treated of >1.7-2.0 fold is shown as B)
N#Cc1ccccc1Nc1cc(N)cc(C(=O)NC2Cc3ccccc3C2)n1 [Example 99, 4-Amino-6-((2-cyanophenyl)amino)-N-(2,3-dihydro-1H-inden-2-yl)picolinamide] | D
